The values that follow are results of earlier work, collected in patent US20080181937A1, “DOSAGE REGIMEN AND MEDICAMENT FOR GUARDING MEMORY AND BRAIN HEALTH AND FOR PREVENTING OR REDUCING RISK OF ONSET OF DEMENTIA BY ADMINISTRATION OF SPECIFIC VITAMINS AND SUPPLEMENTS (MEMOGUARD)” (priority 2007, published 2008).

Series [1] relates to patients with marked memory loss at risk for developing Alzheimer's disease.
The test system of series [2] is elderly patients.
Series [3] relates to animal model of rheumatoid arthritis.
Series [4] has as its system amyloid. The settings on record: in vivo.
Series [5] concerns normal healthy subjects and the elderly. The following applies: fish 2-3 times a week or supplements.

For the compound `COc1cc2c(cc1OC)C(=O)C(CC1CCN(Cc3ccccc3)CC1)C2` (centres unmarked) [Aricept], the “prevention of the onset of Alzheimer's disease” value in series [1] is “Neither of these drugs were shown to significantly prevent the onset”.
On to `CC(C)Cc1ccc(C(C)C(=O)O)cc1` (centres unmarked) [ibuprofen], for which the “incidence of Alzheimer's disease” value in series [2] (observational studies, individuals taking NSAID's) was “lower incidence of Alzheimer's disease”.
For `COc1cc(/C=C/C(=O)CC(=O)/C=C/c2ccc(O)c(OC)c2)ccc1O` [Curcumin], the inflammation entry in series [3] is “can reduce inflammation”.
In the case of `CC/C=C\C/C=C\C/C=C\C/C=C\C/C=C\C/C=C\CCC(=O)O` [DHA], in series [4], the “amount of amyloid in the brain” value was “can reduce the amount of amyloid in the brain”. Besides, the memory and attention entry in series [5] (normal healthy subjects) was “increases memory and attention”. For the same compound, the “risk of Alzheimer's” value in series [5] (the elderly) is listed as “significantly lowers the risk of Alzheimer's”.
For vitamin E, the “transfer to a nursing home” value in series [2] (patients with cognitive impairment or dementia) is reported as “can even delay transfer to a nursing home”.
On to `COc1ccc2c3c1O[C@H]1C[C@@H](O)C=C[C@@]31CCN(C)C2` [Razadyne], for which the “prevention of the onset of Alzheimer's disease” value in series [1] is reported as “Neither of these drugs were shown to significantly prevent the onset”.
